Literature values, collected in PMC9889658, “The structure of MadC from Clostridium maddingley reveals new insights into class I lanthipeptide cyclases” (Frontiers in Microbiology, 2023).

Target: NisB
Details: dependent on maturation state; ref Mavaro et al., 2011; read-out: binding affinity
Description: This implies a higher relevance of the LP comp ...

- Kd: 1000 nM
Sequence: MSTKDFNLDLVSVSKKDSGASPRITSISLCTPGCKTGALMGCNMKTATCHCSIHVSK [unmodified prenisin, unmodified nisin precursor peptide]
